Reference: patent US20240124938A1, “VISUAL DETECTION OF PBD INDUCED DNA CROSSLINKS” (INSERM (INSTITUT NATIONAL DE LA SANTÉ ET DE LA RECHERCHE …, priority 2019, published 2024)

System: DNA crosslinks in mouse bone marrow cells
Assay: Detection of SJG-136-click in mouse bone marrow by confocal microscopy (click labelling of DNA crosslinks)
Assay type: in vivo
Details: mice treated 0.3 mg/kg, 45 minutes; for click-647 (Alexa Fluor 647 azide) signal observed by confocal imaging: sites of reticulation (DNA crosslinks): 10 μm bone marrow sections of femur/tibia, click-it solution with Alexa Fluor 647 azide, FIG. 1 middle column
Protocol: FIG. 1 represents confocal microscopy observations of samples of mice bone marrow in mouse femur tissues treated with 0.3 mg·kg^−1 of either SJG136 (top line of images) (corresponding to a compound outside of the invention) or SJG136-click (bottom line of images) (corresponding to the compound of formula (IV) according to the invention). The nucleus of the sample's cells are identified on the left column by DAPI staining. The middle column represents images obtained by exposing clickable 647 fluorophore (Alexa Fluor™ 647 azide, sold by the company Thermo Fisher) to the samples treated with SJG136 or SJG136-click to detect the SJG136 or SJG136-click. On the right column, observations from the left and middle column are merged. Some of the observable DNA crosslinking are indicated by white arrows in the middle and right cases of the bottom line.
Mice were treated with a compound of formula (IV) according to the invention (0,3 mg/kg) during 45 minutes.
The bone(s) (i.e. femur and tibia) were dissected from the mouse and surrounding muscle(s) were removed. Said bone(s) were immediately fixed with 4% ice-cold PFA solution for 24 hours at 4° C. in a 15 mL conical tube. The bone sample(s) were then washed three times with PBS. Each wash was carried out for 5 minutes at 4° C. with 7 mL of PBS under constant agitation.
A DCAL solution, containing 0.5 M of EDTA, was prepared by dissolving 186.1 g of EDTA in 800 mL of ddH2O with the addition of about 20 g of NaOH pellets to bring the mixture to a pH in the range of 7.4-7.6 by continuous stirring. The volume is adjusted to 1 L and the solution is filtered on a 0.5 μm filter.
A cryoprotectant (CPT) solution (1×) was also prepared by dissolving 200 g of sucrose and 20 g of polyvinylpyrrolidone (PVP) in 700 mL of PBS under constant stirring by a magnetic stirrer. The volume was then adjusted to 1 L and the solution was mixed until a homogeneous solution was obtained. […]

Compound	click-647 (Alexa Fluor 647 azide) signal observed by confocal imaging: sites of reticulation (DNA crosslinks)	localisation of click-647 light spots relative to DAPI-stained nuclei (merged image) (bone marrow sections, merge of DAPI and click-647 images, FIG. 1 right column)
C#CCC(COc1cc2c(cc1OC)C(=O)N1CC(=C)CC1C=N2)COc1cc2c(cc1OC)C(=O)N1CC(=C)CC1C=N2 (stereo not drawn) [SJG136-click, 8,8′-((2-(prop-2-yn-1-yl)propane-1,3-diyl)bis(oxy))bis(7-methoxy-2-methylene-2,3-dihydro-1H-benzo[e]pyrrolo[1,2-a][1,4]diazepin-5(11aH)-one)]	several light spots, clearly distinct one from the others	all the light spots observed are within the nucleus of cells
C=C1C[C@H]2C=Nc3cc(OCCCOc4cc5c(cc4OC)C(=O)N4CC(=C)C[C@H]4C=N5)c(OC)cc3C(=O)N2C1 [SJG136, reference compound]	nothing is visible	–
